One compound from patent US20120022113A1, “METHODS FOR S[…] T[…] ACCUMULATION AND PREVENTING HYPERCYTOKINEMIA” (priority 2009, published 2012) can be followed below.

Test [1] deals with H1N1 A/Puerto Rico/8/34 (PR8) influenza A virus. Also noted: species or system B6 mice. As to conditions: mouse, in vivo.
The test system of test [2] is influenza virus in madin-darby canine kidney (MDCK) cells. Put plainly: Virus replication in MDCK cells. As to conditions: up to 1 μg/ml, compared to PBS.

Each structure is given as a SMILES string.

Compound `CCc1ccc(CCOc2ccc(CC3SC(=O)NC3=O)cc2)nc1` (centres unmarked) [pioglitazone] returned a mortality in test [1] of 50%. Also, the “inhibition of virus replication in MDCK cells” value in test [2] was “did not inhibit”.

The mortality is the share of the test organisms that died. A high value points to a strong lethal effect.
